The structures appear in SMILES notation.

One assay concerns the target T1, sex hormone binding globulin (SHBG) (Homo sapiens, UniProt P04278).
T1 sequence (P04278 30-402): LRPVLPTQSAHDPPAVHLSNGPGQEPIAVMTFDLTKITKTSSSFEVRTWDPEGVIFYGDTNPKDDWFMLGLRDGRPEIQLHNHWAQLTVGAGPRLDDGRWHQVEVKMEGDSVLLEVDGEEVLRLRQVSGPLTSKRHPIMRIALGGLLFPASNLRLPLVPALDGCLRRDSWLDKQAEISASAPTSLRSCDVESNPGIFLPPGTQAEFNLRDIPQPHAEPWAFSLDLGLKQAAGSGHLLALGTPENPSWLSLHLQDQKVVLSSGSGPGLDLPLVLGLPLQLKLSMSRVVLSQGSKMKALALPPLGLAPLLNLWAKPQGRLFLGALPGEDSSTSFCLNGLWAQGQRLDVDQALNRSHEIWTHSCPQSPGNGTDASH
Assay: not given
The note with it: adapted from Dunn et al. 1981; human plasma; cited from earlier work.
Regarding `C[C@]12CC[C@@H](O)C[C@@H]1CC[C@@H]1[C@@H]2CC[C@]2(C)C(=O)CC[C@@H]12` [androsterone], the “K (binding affinity constant for SHBG)” value is given as 14 10^6 Liter/mole.

`CC(=O)[C@@]1(O)CC[C@H]2[C@@H]3CCC4=CC(=O)CC[C@]4(C)[C@H]3CC[C@@]21C` [17-hydroxyprogesterone]: the “K (binding affinity constant for SHBG)” value is on record as 9.9 10^6 Liter/mole.

With `C[C@]12CCC(O)C[C@@H]1CC[C@@H]1[C@@H]2CC[C@]2(C)[C@@H](O)CC[C@@H]12` (some centres unmarked) [androstanediol], the “K (binding affinity constant for SHBG)” value is recorded as 1300 10^6 Liter/mole.

`C[C@]12CC[C@@H]3c4ccc(O)cc4CC[C@H]3[C@@H]1C[C@@H](O)[C@@H]2O` [estriol]: the “K (binding affinity constant for SHBG)” value is reported as 4.3 10^6 Liter/mole.

With `C[C@]12CCC(=O)C[C@@H]1CC[C@@H]1[C@@H]2CC[C@]2(C)[C@@H](O)CC[C@@H]12` [dihydrotestosterone], the “K (binding affinity constant for SHBG)” value is 5500 10^6 Liter/mole.

On to `C[C@]12CC[C@H](O)CC1=CC[C@@H]1[C@@H]2CC[C@]2(C)C(=O)CC[C@@H]12` [dehydroepiandrosterone], for which the “K (binding affinity constant for SHBG)” value is 66 10^6 Liter/mole.

Take `C[C@]12CCC(=O)C=C1CC[C@@H]1[C@@H]2CC[C@]2(C)C(=O)CC[C@@H]12` [androstenedione]: the “K (binding affinity constant for SHBG)” value was 29 10^6 Liter/mole.

As to `CC(=O)[C@H]1CC[C@H]2[C@@H]3CCC4=CC(=O)CC[C@]4(C)[C@H]3CC[C@]12C` [progesterone], the “K (binding affinity constant for SHBG)” value is 8.8 10^6 Liter/mole.

Another assay has as its system SHBG. Description: Serum SHBG level prior to patch application in the pharmacokinetic study. Conditions: mean±SEM, surgically menopausal women on the estrogen. It is filed as in vivo, human. The source says:
The structure and proposed functions of SHBG have been described and characterized. See, for example, Rosner et al., Sex Hormone-Binding Globulin Mediates Steroid Hormone Signal Transduction at the Plasma Membrane, J. Steroid Biochem. Mol. Biol. Vol. 69:481-5 (1999); Petra, P. H. The plasma Sex Steroid Binding Protein (SBP or SHBG). A Critical Review of Recent Developments on the Structure, Molecular Biology, and Function, J. Steroid Biochem. Mol. Biol., Vol. 40:735-53 (1991). A variety of methods have been used to quantify the serum concentrations of SHBG, including ammonium sulfate precipitation, gel filtration, equilibrium dialysis, dextran-coated charcoal, and radioimmunoassay. See, for example, Khan et al., Radioimmunoassay for Human Testosterone-Estradiol-Binding Globulin, J. Clinical Endocrinology and Metabolism, Vol. 54:705-710 (1982). […] Serum SHBG levels are known to be elevated in women treated with oral estrogens, estrogen-containing oral contraceptives, clomiphene, tamoxifen, raloxifene, phenytoin, and sodium valproate, as well as in women who are pregnant, hyperthyroid, have chronic liver disease and HIV-infection. See for example, Bond et al., Sex Hormone Binding Globulin in Clinical Perspective, Acta. Obstet. Gynecol. […]
As to `C[C@]12CC[C@@H]3c4ccc(O)cc4CC[C@H]3[C@@H]1CC[C@@H]2O` [estradiol], the SHBG is given as 90.8 ± 12.9 nmol/L.

Another assay has as its system SHBG.
Assay: not given
The note with it: known from literature (Bond et al. 1987; Miller et al. 1998); cited from earlier work.
On to `O=C(c1ccc(OCCN2CCCCC2)cc1)c1c(-c2ccc(O)cc2)sc2cc(O)ccc12` [raloxifene], for which the “Serum SHBG levels in women treated” value is given as “elevated”.

Take `CC/C(=C(\c1ccccc1)c1ccc(OCCN(C)C)cc1)c1ccccc1` [tamoxifen]: the “Serum SHBG levels in women treated” value was “elevated”.

Consider `O=C1NC(=O)C(c2ccccc2)(c2ccccc2)N1` [phenytoin], for which the “Serum SHBG levels in women treated” value is on record as “elevated”.

Regarding `CCCC(CCC)C(=O)[O-].[Na+]` [sodium valproate], the “Serum SHBG levels in women treated” value is given as “elevated”.

As to `CCN(CC)CCOc1ccc(C(=C(Cl)c2ccccc2)c2ccccc2)cc1` [clomiphene], the “Serum SHBG levels in women treated” value is reported as “elevated”.

The values are drawn from US8551516B2, “Administration of non-oral androgenic steroids to women” (Actavis, Inc., priority 1999, dated 2013).
